Experimental data: patent US12415939B2, “Nano-adhesive and surface primer compound and use thereof” (The Regents of the University of California, priority 2015, dated 2025)

Assays:
[1] = Cyclic voltammetry of catechol oxidation; assay type: physicochemical; conditions: DI water, scan rate 1 mV s−1, Ag/AgCl reference
Description: (§1) Cyclic voltammetry was performed on a Versastat 3 potentiostat from Ametek Co. These analyses were carried out using a three-electrode cell: a Pt wire as the counter electrode, an Ag/AgCl reference electrode, and a Carbon paste electrode (CPE) served as the working electrode. CPE is the best choice for adhesive materials because of its ability to be completely polished before each experiment. Catechol auto-oxidation was avoided by performing all electrochemical experiments with degassed deionized water in a glove bag under argon. Scan rate 1 mV s-1 was used for all experiments. CV of 5 mM synthesized polymers and 5 mM methyl catechol, a simple catechol-containing compound, were compared. Oxidation of Catechol carrying molecules occurred at more positive potentials than methyl catechol, indicating the unique structure of the dispersions provide shielding effects that stabilized catechol groups (FIG. 3).
Cyclic voltammetry was performed on a Versastat 3 potentiostat from Ametek Co. (Berwyn, PA). These analyses were carried out using a three-electrode cell: a Pt wire as the counter electrode, an Ag/AgCl reference electrode, and a Carbon paste electrode (CPE) served as the working electrode. CPE is the best choice for adhesive materials because of its ability to be completely polished before each experiment.
as §1, with “s^−1” for “s-1”, “molecules” for “polymers”, “groups. Z-Cat-Ben with an oxidation peak at 840 mV is more resistant to oxidation than the other species” for “groups”, “42).” for “3).”

[2] = Lap shear test of cured PMA resin on primed tooth enamel; parameters: species or system human
Description: 1 wt % primer solution was spread on mica, glass, tooth enamel, or a silicon wafer and incubated for 1 min, followed by thorough washing with methanol (for MDP, P1-P3) or DMSO (for P4) and drying by flowing nitrogen. The surfaces were exposed to a basic aqueous solution (pH 9, using sodium hydroxide), incubated for 1 min, and drying by flowing nitrogen (see FIG. 52). The methacrylic comonomer blend (Bis-GMA, TEGDMA, DMAEMA and CQ) was packed in a gelatin capsule (size #4, 5-mm diameter, Torpac Inc.) and placed up on top of the primer-treated substrates. The comonomer blend was cured (or crosslinked) for 1 min using a portable dental curing lamp (Foshan Liang Ya Dental Co., LY-A180, 420-480 nm, 1200-2000 mW·cm^−2) (see FIG. 53). Uniaxial compression was applied to the capsule at a rate of 0.05 inch min^−1 using a materials testing system (MTS Bionix 200) until the capsules are separated from the substrate. The lap shear fracture measurements were repeated at least 10 times for each condition.

[3] = QCM-D adsorption of primers; assay type: physicochemical; conditions: for surface concentration of adsorbed layer: Sauerbrey, after rinsing
Description: A ‘static cell’ (often called ‘Open Module’) QCM-D (Q-Sense, Biolin Scientific) was employed to quantitatively evaluate the adsorption of each primer onto SiO2 surface using a quartz sensor (QSX 303, Biolin Scientific). Changes in resonance frequency (ΔF) and dissipation (ΔD) of the SiO2 were recorded and used to measure the adsorbed mass and layer viscoelasticity, respectively, of the primer deposited on the sensor. In detail, pure solvent (100 μl) was dropped onto the sensor and equilibrated for ˜20-30 min. Then, 2 wt % primer solution (100 μl) was dropped onto the sensor (this is labeled “Solution Drop-in” in FIG. 51) and equilibrated until the frequency and dissipation signals stabilized. To remove unbound primers, the sensor was rinsed with solvents (this is labeled “Solvent Rinsing” in FIG. 51) and equilibrated until frequency and dissipation signals stabilized.
Mass loss of P3 and P4 during the rinsing was negligible compared to P2 which lost 60% of initial mass, indicating outstanding adsorption efficiency of catechol-containing primers on SiO2 surfaces even compared to mussel foot protein adsorption (˜30% loss of mfp-3s^3). The priming thickness of P4 estimated by QCM-D is ˜3.1 nm which agrees with the average height of AFM images (˜3.5 nm), assuming that QCM-D measures the average thickness of a uniform layer. The smaller average thickness of P4 (˜3.1 nm) compared to the molecular contour length (˜4.8 nm) may be attributed to the flexible alkyl spacer in P4. The possibility of a softer, more flexible layer with P4 is supported by a higher change in dissipation (ΔD) compared to other primers.

[4] = SFA adhesion of cured PMA resin between primer-treated mica surfaces
Description: Atomically-smooth muscovite mica sheets were freshly cleaved (thickness of 2-5 μm) and attached on another large freshly cleaved mica backing sheet under a laminar flow hood and placed in a desiccator for clean storage. To ensure use of a fresh surface for each experiment, mica was peeled away from the backing sheet and glued on cylindrical disks using an epoxy glue (EPON 1004 F® from Exxon Chemicals). In each experiment, the mica surfaces were treated with one of the primer solutions, as described for the lap shear experiments, and then mounted in the SFA in a cross cylindrical geometry. In contrast to typical SFA experiments, which use an interferometric method to calculate the disk-disk separation distances and thus the interaction forces, in the SFA used here for adhesion testing, the disk separations were directly measured using semiconductor strain-gauged double cantilever springs (k=1000-10000 N/m)(see FIG. 67). After separating the surfaces, 100 […]1 of comonomer blend was injected between the two surfaces. Then, ˜600 mN of load was applied, followed by visible light curing for 1 min using the portable dental curing lamp (see FIG. 54G). Adhesion strength of cured polymer toward the mica was measured by detaching (unloading) two surfaces. All loading and unloading were performed using a coarse micrometer at the velocity of […]. The SFA measurements were repeated at least 5 times for each condition.

[5] = Surface forces apparatus (SFA) cohesion/adhesion between thin films on mica; assay type: physicochemical; conditions: for cohesion (or adhesion) energy Wc: symmetric films adsorbed from 5 mM, DI water
Description: The interaction between two surfaces can be measured with nano-Newton level force resolution and Angstrom level resolution in the separation distance between the surfaces. The details of the SFA techniques have been describe in a work by Israelachvili et al. In a typical SFA experiment (FIG. 2C), the distance and the force between the surfaces are measured simultaneously. To begin with, the instrument is calibrated at large separation distances. When the two surfaces are not interacting, i.e., they are separated by large distances, the change in the separation between them is equal to the distance through which the motor moves the lower surface towards or away from the upper surface (or the upper surface driven by the piezo-tube moves towards the lower surface). However, once the surfaces are close enough to start interacting with each other, the measured separation distance deviates from the expected separation calibrated when there is no force between the surfaces. This deviation is due to the deflection of the double cantilever spring and is directly proportional to the force acting normally between the two opposing surfaces. Thus the normal force can be measured using Hooke's law, F=kΔx, where k is the spring constant of the double-cantilever spring and Δx=Dactual−Dapplied is the deflection of the spring, determined by taking the difference between the applied change in position of one of the surfaces Dapplied and the actual change in distance measured between the surfaces Dactual. The actual distance, Dactual, between the surfaces can be measured by multiple beam interferometry (MBI) and will be discussed below.
The distance between the surfaces, shape of the interface and the refractive index of the media between the surfaces can be accurately determined by Multiple Beam Interferometry (MBI) technique. In this technique, white light is directed through two back-silvered mica surfaces (or uniform and same thickness). As a white light passes between the mica surfaces, it undergoes interference due to the optical trap set up by the back silver on each of these surfaces giving rise to discrete wavelengths of light (FIG. 2C). These wavelengths of light are resolved in a spectrometer creating interference fringes known as ‘fringes of equal chromatic order’ (FECO). Since mica is birefringent, the FECO appears as doublets and termed as β and γ. Alternate fringes are termed as odd and even fringes with odd fringes having nodes at the center and even fringes with anti-nodes in the center. The FECO is then recorded on a camera and analyzed to determine the distance between the surfaces using the following equations: […]
The adhesion/cohesion energy of the synthetic zwitterionic molecules was investigated in SFA (SurForce LLC, Santa Barbara, CA). Two molecularly smooth freshly cleaved back silvered mica surfaces glued on cylindrical silica discs of radius of curvature, R˜2 cm, were mounted in the SFA and 50 μL of a colloidal dispersion of the synthetic molecules in DI water were injected between the surfaces at different concentrations (C=0.5-5 mM) and the forces between the thin films of the molecules were measured by Multiple Beam Interferometry (MBI). The adhesion forces between Z-Cat-C10 molecules on various surfaces, e.g., silica and copper, were also measured by AFM (MFP-3D, Asylum research, Goleta, CA) in DI water and ambient conditions, respectively, at room temperature. AFM probes with a silicon dioxide particle (10, 5, and 1 μm, respectively) on a silicon nitride (SN) cantilever-0.6 N m^−1 were purchased from Novascan Technologies, Inc (Ames, IA). Cantilever spring constants were measured for each force run. Images of Z-Cat-C10 coating on silicon wafer and copper plates were visualized in an AFM. […]

Question: For `Cc1ccc(O)c(O)c1` [4-methylcatechol, reference compound], which E1/2 [1] is on record?
Answer: ~0.12 V

Question: And the E1/2 ([1]; listed as methyl catechol)?
Answer: 0.124 V

Question: For `C=C(C)C(=O)OCCCCCCCCCCOP(=O)(O)O` [MDP, 10-methacryloyloxydecyl dihydrogen phosphate, reference compound], which “lap shear strength σshear,max” value [2] is on record?
Answer: 3.1±0.2 MPa

Question: Which “surface concentration of adsorbed layer” value [3] does the source give for `C=CC(=O)OCc1ccccc1` [P1, Benzyl acrylate, reference compound] here?
Answer: 0 ng/cm^2

Question: What about the “lap shear strength σshear,max” value [2] of the same compound?
Answer: no increase in the lap shear strength

Question: What about the “increase in adhesion vs plain mica (no primer)” value [4] of the same compound?
Answer: no increase in adhesion

Question: For `C=CC(=O)OCc1ccc(O)cc1` [P2, 4-Hydroxybenzyl acrylate], which “surface concentration of adsorbed layer” value [3] is on record?
Answer: 230 ng/cm^2

Question: What about the “mass loss during rinsing” value ([3]; of initial mass) of the same compound?
Answer: 60%

Question: What about the “lap shear strength σshear,max” value [2] of the same compound?
Answer: no increase in the lap shear strength

Question: And the “increase in adhesion vs plain mica (no primer)” value [4]?
Answer: no increase in adhesion

Question: With `CN(C)CCOP(=O)(O)OCCCc1ccccc1` [Z-Ben-C8] as the compound, how does the “film (hard-wall) thickness” value ([5]; deposited at 0.5 mM in DI water) read?
Answer: 2 nm

Question: What about the hard-wall thickness ([5]; films adsorbed from 5 mM, mica) of the same compound?
Answer: ~5 nm

Question: And the “cohesion (or adhesion) energy Wc” value ([5]; mica)?
Answer: without cohesive tendencies

Question: Which “cohesion (or adhesion) energy Wc” value ([5]; mica) does the source give for `CN(C)CCOP(=O)(O)OCCCc1ccc(O)c(O)c1` [Z-Cat-C4] here?
Answer: 19.2±2.4 mJ m^−2

Question: With `CN(C)CCOP(=O)(O)OCCCc1ccc(O)c(O)c1` [Z-Cat-C6] as the compound, how does the “cohesion (or adhesion) energy Wc” value ([5]; mica) read?
Answer: 9.6±1.1 mJ m^−2

Question: With `CN(C)CCOP(=O)(O)OCCCc1ccc(O)c(O)c1` [Z-Cat-C8] as the compound, how does the interaction energy ([5]; 0.5 mM concentration) read?
Answer: ~22 mJ m^−2

Question: And the “cohesion (or adhesion) energy Wc” value ([5]; mica)?
Answer: 2.5±0.3 mJ m^−2
